Results from patent US20240374763A1, “DIAGNOSIS AND MONITORING USING EXTRADOMAIN-B FIBRONECTIN TARGETED PROBES” (Case Western Reserve University, priority 2020, published 2024).
No end group written: not given here.

Columns and labels:
Type in all cases: in vivo, mice
DLD-1 tumors = assay: MRMI of EDB-FN with MT218, DLD-1 xenografts; conditions: 40 μmol/kg MT218, 25 min post-injection
Description: (§1) Nude athymic mice (6-week-old nu/nu females) were purchased from The Jackson Laboratory (Bar Harbor, […]) and housed in the Animal Facility at CWRU. All the animal experiments were performed according to the protocol approved by the IACUC of CWRU. For assessment of drug resistance, 2 drug-resistant and 2 non-drug-resistant models were set up. About 3-4×10^6 DLD-1, RKO, DLD1-DR, and RKO-DR cells suspended in Matrigel-PBS mixture (1:1) were subcutaneously injected in the left flanks of nude mice (100 μL per mouse, 5 mice per group×4 models=20 mice). After 9 days when the tumors reached 100-200 mm3, MRMI was performed on the 4 xenograft models with 40 μmol/kg dose of MT218. The animals were then euthanized, and the tumors were harvested for post-mortem histology and IHC.
(§2) MT218 was synthesized as previously described. Ayat, N. R., et al., ACS Med Chem Lett, 2018. 9(7): p. 730-735. Briefly, click reaction between alkynyl-ZD2 and N3-Gd(HP-DO3A) was performed in the presence of CuSO4 and ascorbate at room temperature, followed by FLASH chromatography purification and validation of MT218 by MALDI-TOF mass spectrometry (m.w. 1443). […] Contrast-to-noise ratios (CNRs) were calculated as (mean tumor intensity—mean muscle intensity)/standard deviation of noise. […]

RKO tumors = assay: MRMI of EDB-FN with MT218, RKO xenografts; conditions: 40 μmol/kg MT218, 25 min post-injection
Description: as §1, §2

DLD1-DR tumors = assay: MRMI of EDB-FN with MT218, DLD1-DR xenografts
Description: as §1
MT218 was synthesized as previously described. Ayat, N. R., et al., ACS Med Chem Lett, 2018. 9(7): p. 730-735. Briefly, click reaction between alkynyl-ZD2 and N3-Gd(HP-DO3A) was performed in the presence of CuSO4 and ascorbate at room temperature, followed by FLASH chromatography purification and validation of MT218 by MALDI-TOF mass spectrometry (m.w. 1443). For assessment of drug resistance and therapeutic monitoring, MRMI was performed in a 3T MRS 3000 scanner (MR Solutions, Surrey, UK) with a mouse short quad coil. The mice were anesthetized with isofluorane and tail vein catheter was setup. T1-weighted MR images were obtained before (pre-contrast) and 25 min after injection (post-contrast) of 40 μmol/kg dose of MT218 [ZD2-N3—Gd(HP-DO3A)]. The following two sequences were used with respiratory gating: axial fast spin echo (FSE) (TR=305 ms, TE=11 ms, FA=90°, FOV=40 mm×40 mm, slice thickness=1 mm, slice number=15, Nav=2, matrix=256×256) and coronal FSE (TR=305 ms, TE=11 ms, FA=90°, FOV=90 mm×90 mm, slice thickness=1 mm, slice number=20, Nav=1, matrix=248×512). […] Contrast-to-noise ratios (CNRs) were calculated as (mean tumor intensity—mean muscle intensity)/standard deviation of noise. […]

[1] = system: PANC-1-GFP-Luc intrapancreatic tumor xenografts; assay: MRMI of PANC-1-GFP-Luc intrapancreatic tumor xenografts
Description: For flank xenograft models, 4×10^6 Capan-1 cells suspended in 100 μL of a 6 mg/mL Matrigel (Corning, Corning, NY) solution was injected subcutaneously into the flank of eight-week-old female nu/nu mice. The tumor bearing mice were imaged after tumor volumes exceeded 300 mm^3. For orthotopic intrapancreatic models, the pancreas of four-week-old female nu/nu mice were surgically exposed and 1×10^6 BxPC3-GFP-Luc or PANC-1-GFP-Luc cells suspended in 100 μL of an Matrigel solution (6 mg/mL) was injected into the pancreatic tissue. Prior to imaging, growth of tumor was verified by bioluminescence imaging with intraperitoneal injection of d-luciferin on IVIS Spectrum system (Perkin Elmer, Waltham, MA).
Mice bearing intrapancreatic tumors were anesthetized and a tail vein catheter was inserted. Image acquisition was performed on a MR Solutions 3T MRS 3000 scanner with a mouse radiofrequency coil. Axial images were obtained using a Fast Spin Echo (FSE) MRI sequence (305 ms TR, 11 ms TE, 90° F.A, 4 cm×4 cm FOV, 1 mm slice thickness, 10 slices, echo train length=4, echo spacing=11 ms, 4 averages, 256×256 matrix, […] cm/pixel resolution) with respiratory gating. Images were acquired before contrast and at different time points after contrast injection at a dose of 0.1 mmol/kg (100 μL). For competitive binding experiments, a 5:1 molar ratio of free ZD2 peptide to MT218 was injected in mice bearing intrapancreatic BxPC3 tumor xenografts (n=3) at a dose of 0.1 mmol MT218/kg (100 μL). Images obtained on the MR Solutions 3T scanner were normalized using the Surscalereader.exe (MR Solutions, Guildford, UK) program supplied.
Image files were exported and analyzed in Horus software. ROIs were drawn in the tumor, liver, kidney, and muscle. […] The contrast-to-noise ratio of the tumor (CNR) was calculated using the following equation, where σ_noise is the standard deviation of intensities from an ROI drawn outside of the mouse body: […]

C4-2 tumors = assay: MRMI with MT218, C4-2 xenografts; conditions: 0.04 mmol Gd/kg, 20 min post-injection
Source text: Xenograft models were established by subcutaneous flank injections in athymic nu/nu mice for the 4 prostate cancer cells and tested with MRMI using 0.04 mmol Gd/kg of MT218.

[2] = DLD1-DR over DLD-1 tumors, 40 μmol/kg MT218

Substance: ZD2-N3-Gd(HP-DO3A) (TVRTSAD; also: conjugated to Gd(HP-DO3A) by click reaction of alkynyl-ZD2 with N3-Gd(HP-DO3A), residue of attachment not given here, Gd complex) [MT218, EDB-FN-targeted MRI contrast agent; ZD2 peptide conjugated to the clinical macrocyclic agent Gd(HP-DO3A)]
- increase in CNRs over the pre-contrast (DLD-1 tumors): 1.53 fold
- increase in CNRs over the pre-contrast (RKO tumors): 1.4 fold
- higher CNRs over the non-resistant tumors (DLD1-DR tumors; [2]): 2.2 fold
- increase in CNR over the non-resistant tumors (DLD1-DR tumors; [2]): 120%
- higher CNRs over pre-contrast (DLD1-DR tumors; DLD1-DR tumors, 40 μmol/kg MT218, 25 min post-injection): 3.3 fold
- intratumoral CNR increase ([1]; 0.1 mmol/kg, 10 min postinjection): approximately 3.85 fold
- CNR compared to the clinical agent Gd(HP-DO3A) ([1]; PANC-1-GFP-Luc intrapancreatic): 164 % CNR of control
- increase of CNR (C4-2 tumors): ~3 fold
